Assay results from patent US20260191998A1, “INDOLE PHTHALOCYANINE COMPOUND, PREPARATION METHOD THEREFOR, AND USE THEREOF IN TUMOR DIAGNOSIS IMAGING” (JIANGSU YAHONG MEDITECH CO., LTD., priority 2022, published 2026).

Assays:
[1] = UV-VIS absorption spectra (optical property test); type: physicochemical; details: 10 μM, DMSO solution; for Absorbance × 10^4: at maximum absorption peak
Protocol: The UV-VIS absorption spectra of the compounds (10 μM, DMSO solution) were detected using Shimadzu UV2600 spectrophotometer, and the maximum absorption peak and absorbance of each compound were obtained.

[2] = system: human bladder cancer cell line UM-UC-3; experiment: In vitro imaging effect test with addition of BSP, UM-UC-3; type: cell-based; details: 250 μM BSP, compound 1-20 μM with surfactin 1:5, 30 minutes
Protocol: UM-UC-3 (1.5×10^4/well) were cultured in EMEM medium (containing 10% fetal bovine serum (FBS) and 1% antibiotics (100 U/mL penicillin and 100 U/mL streptomycin)) and seeded in a 96-well plate in advance. The plate was cultured in a 5% CO2 cell culture incubator at 37° C. overnight. The following day, the culture medium was sucked away, and 250 μM of BSP was added to the test wells and preconditioned for 10 minutes, followed by addition of the culture medium containing an appropriate concentration (1-20 μM) of the compound and surfactin (the molar ratio of the test compound to the surfactin being 1:5) with or without 250 μM of BSP, and then incubated for 30 minutes. The cells were rinsed three times with PBS solution, and the near-infrared fluorescence intensity in the bladder cancer cells was observed using an integrated fluorescence microscopic imaging system from Keyence. The conditions for near-infrared photography were Ex=775/50 nm and Em=845/55 nm.

| Absorption peak [1] | Absorbance × 10^4 [1] | Compound | Uptake by UM-UC-3 with or without BSP [2] |
| --- | --- | --- | --- |
| 833.5 nm | 2.09 | CC[N+]1=C(/C=C/C2=C(Cl)C(=C/C=C3/N(CCCCCC(=O)Oc4ccccc4)c4ccc5ccccc5c4C3(C)C)/CCC2)C(C)(C)c2c1ccc1ccccc21 [Example 2] | may be weakened or enhanced by BSP |
| 793.5 nm | 3.686 | CC[N+]1=C(/C=C/C2=C(Cl)C(=C/C=C3/N(CCCCC(=O)NCCCNC(=O)CCCCN4/C(=C/C=C5\CCCC(/C=C/C6=[N+](CC)c7ccccc7C6(C)C)=C5Cl)C(C)(C)c5ccccc54)c4ccccc4C3(C)C)/CCC2)C(C)(C)c2ccccc21.[Cl-].[Cl-] [Example 82] | – |
| – | 2.41 | CC1(C)C(/C=C/C2=C(Cl)C(=C/C=C3/N(CCCCCC(=O)O)c4ccccc4C3(C)C)/CC2)=[N+](CCCCCC(=O)O)c2ccccc21 [Example 84, 1-(5-carboxypentyl)-2-((E)-2-((E)-3-(2-((E)-1-(5-carboxypentyl)-3,3-dimethylindolin-2-ylidene)ethenyl)-2-chlorocyclopent-1-en-1-yl)ethenyl)-3,3-dimethyl-3H-indol-1-ium Chloride] | – |
| – | 1.86 | CC1(C)C(/C=C/C2=C(Cl)C(=C/C=C3/N(CCCCCC(=O)Oc4ccccc4)c4ccccc4C3(C)C)/CC2)=[N+](CCCCCC(=O)O)c2ccccc21.[Cl-] [Example 89] | – |
| – | 0.46 | CC[N+]1=C(/C=C/C2=C(Cl)C(=C/C=C3/N(CCOCCC(=O)O)c4ccccc4C3(C)C)/CCC2)C(C)(C)c2cc(C(=O)O)ccc21.[Cl-] [Example 91] | – |
| – | 2.45 | CC[N+]1=C(/C=C/C2=C(Br)C(=C/C=C3/N(CCCCCC(=O)O)c4ccccc4C3(C)C)/CCC2)C(C)(C)c2ccccc21.[Cl-] [Example 96] | – |
| 757.5 nm | 2.483 | CC1(C)C(/C=C/C2=C(Oc3ccc(S(=O)(=O)O)cc3)C(=C/C=C3/N(CCCCCC(=O)Oc4ccccc4)c4ccccc4C3(C)C)/C[N+](C)(C)C2)=[N+](CCCCCC(=O)Oc2ccccc2)c2ccccc21 [Example 103] | – |
| 781.5 nm | 2.054 | CC[N+]1=C(/C=C/C2=C(OC)C(=C/C=C3/N(CCCCCC(=O)Oc4ccccc4)c4ccccc4C3(C)C)/CCC2)C(C)(C)c2ccccc21 [Example 104] | – |
| 807.5 nm | 1.997 | CC[N+]1=C(/C=C/C2=C(Sc3ccccc3)C(=C/C=C3/N(CCCCCC(=O)Oc4ccccc4)c4ccccc4C3(C)C)/CCC2)C(C)(C)c2ccccc21.[Cl-] [Example 106] | – |
| 778.5 nm | 2.028 | CCN1/C(=C/C=C2\C[N+](C)(C)CC(/C=C/C3=[N+](CC)c4ccccc4C3(C)C)=C2Sc2ccccc2)C(C)(C)c2ccccc21.Cl [Example 107] | – |
| 805.5 nm | 1.752 | CCN1/C(=C/C=C2\CCCC(/C=C/C3=[N+](CC)c4ccccc4C3(C)C)=C2Sc2ccccc2)C(C)(C)c2ccccc21.[Cl-] [Example 108] | – |
| 756 nm | 0.911 | CC[N+]1=C(/C=C/C2=C(Oc3ccc(S(=O)(=O)O)cc3)C(=C/C=C3/N(CCCCCC(=O)Oc4ccccc4)c4ccccc4C3(C)C)/C[N+](C)(C)C2)C(C)(C)c2ccccc21 [Example 112] | – |
| – | 2.24 | CC[N+]1=C(/C=C/C2=C(Oc3ccc(NC(=O)/C=C/CN(C)C)cc3)C(=C/C=C3/N(CCCCCC(=O)Oc4c(C)cccc4C)c4ccccc4C3(C)C)/CCC2)C(C)(C)c2ccccc21.[Cl-] [Example 115] | – |
| – | 1.36 | CC[N+]1=C(/C=C/C2=C(Cl)C(=C/C=C3/N(CCOCCC(=O)Oc4ccccc4)c4ccccc4C3(C)C)/CCC2)C(C)(C)c2cc(C(=O)O)ccc21 [Example 117, 5-carboxy-2-((E)-2-((E)-2-chloro-3-(2-((E)-3,3-dimethyl-1-(2-(3-oxo-3-phenoxypropoxy)ethyl)indolin-2-ylidene)ethenyl)cyclohex-1-en-1-yl)ethenyl)-1-ethyl-3,3-dimethyl-3H-indol-1-ium 2,2,2-trifluoroacetate] | – |
| – | 1.52 | C[N+]1=C(/C=C/C2=C(Cl)C(=C/C=C3/N(CCCCCC(=O)O)c4ccccc4C3(C)C)/CCC2)C(C)(C)c2cc(C(=O)O)ccc21 [Example 119, 5-carboxy-2-((E)-2-((E)-3-(2-((E)-1-(5-carboxypentyl)-3,3-dimethylindolin-2-ylidene)ethenyl)-2-chlorocyclohex-1-en-1-yl)ethenyl)-1,3,3-trimethyl-3H-indol-1-ium 2,2,2-trifluoroacetate] | – |

The remaining lines, values behind:

| Compound | Absorption peak [1] | Absorbance × 10^4 [1] | Uptake by UM-UC-3 with or without BSP [2] |
| --- | --- | --- | --- |
| CC[N+]1=C(/C=C/C2=C(Cl)C(=C/C=C3/N(CCCCCC(=O)Oc4ccccc4)c4ccccc4C3(C)C)/CCC2)C(C)(C)c2ccccc21 [Example 12a, 2-((E)-2-((E)-2-chloro-3-(2-((E)-3,3-dimethyl-1-(6-oxo-6-phenoxyhexyl)indolin-2-ylidene)ethenyl)cyclohex-1-en-1-yl)ethenyl)-1-ethyl-3,3-dimethyl-3H-indol-1-ium chloride, reference compound] | – | – | may be weakened or enhanced by BSP |
| C[N+]1=C(/C=C/C2=C(Cl)C(=C/C=C3/N(CCOCCOCCOCc4ccccc4)c4ccccc4C3(C)C)/CCC2)C(C)(C)c2ccccc21 [Example 56, 2-((E)-2-((E)-3-(2-((E)-1-(2-(2-(2-(benzyloxy)ethoxy)ethoxy)ethyl)-3,3-dimethylindolin-2-ylidene)ethenyl)-2-chlorocyclohex-1-en-1-yl)ethenyl)-1,3,3-trimethyl-3H-indol-1-ium 2,2,2-trifluoroacetate] | – | 1.85 | – |
| C[n+]1cccc2c1N=C(/C=C/C1=C(Cl)C(=C/C=C3/N(CCCCCC(=O)O)c4ccccc4C3(C)C)/CC1)C2(C)C [Example 63, 2-((E)-2-((E)-3-(2-((E)-1-(5-carboxypentyl)-3,3-dimethylindolin-2-ylidene)ethenyl)-2-chlorocyclopent-1-en-1-yl)ethenyl)-3,3,7-trimethyl-3H-pyrrolo[2,3-b]pyridin-7-ium Chloride] | – | 0.31 | – |
| C[n+]1cccc2c1N=C(/C=C/C1=C(Cl)C(=C/C=C3/N(CCCCCC(=O)O)c4ccccc4C3(C)C)/CCC1)C2(C)C [Example 64, 2-((E)-2-((E)-3-(2-((E)-1-(5-carboxypentyl)-3,3-dimethylindolin-2-ylidene)ethenyl)-2-chlorocyclohex-1-en-1-yl)ethenyl)-3,3,7-trimethyl-3H-pyrrolo[2,3-b]pyridin-7-ium Chloride] | – | 0.5 | – |
| CC[N+]1=C(/C=C/C2=C(Cl)C(=C/C=C3/N(CCCCCC(=O)NCCCCCNC(=O)CCCCCN4/C(=C/C=C5\CCCC(/C=C/C6=[N+](CC)c7ccccc7C6(C)C)=C5Cl)C(C)(C)c5ccccc54)c4ccccc4C3(C)C)/CCC2)C(C)(C)c2ccccc21 [Example 77, 2,2′-((1E,1′E)-((3E,3′E)-(((2E,2′E)-((pentane-1,5-diylbis(azanediyl))bis(6-oxohexane-6,1-diyl))bis(3,3-dimethylindolin-1-yl-2-ylidene))bis(ethane-2,1-diylidene))bis(2-chlorocyclohex-1-en-1-yl-3-ylidene))bis(ethene-2,1-diyl))bis(1-ethyl-3,3-dimethyl-3H-indol-1-ium) Chloride] | 794.5 nm | 4.344 | – |
| C[N+]1=C(/C=C/C2=C(Cl)C(=C/C=C3/N(CCCCCC(=O)Nc4ccccc4)c4ccccc4C3(C)C)/CC2)C(C)(C)c2ccccc21 [Example 83, 2-((E)-2-((E)-2-chloro-3-(2-((E)-3,3-dimethyl-1-(6-oxo-6-(anilino)hexyl)indol-2-methylene)ethylidene)cyclopent-1-en-1yl)ethenyl)-1,3,3-trimethyl-3H-indol-1-ium Chloride] | 820 nm | 3.079 | – |
| CC1(C)C(/C=C/C2=C(Cl)C(=C/C=C3/N(CCCCCC(=O)O)c4ccccc4C3(C)C)/CCC2)=[N+](CCCCCC(=O)Oc2ccccc2)c2ccccc21 [Example 85A] | 796.5 nm | 2.239 | – |
| CC1(C)C(/C=C/C2=C(Cl)C(=C/C=C3/N(CCCCCC(=O)O)c4ccccc4C3(C)C)/CCC2)=[N+](CCCCCC(=O)O)c2ccccc21 [Example 85B] | 796.5 nm | 1.397 | – |
| Cc1cccc(C)c1OC(=O)CCCCC[N+]1=C(/C=C/C2=C(Cl)C(=C/C=C3/N(CCCCCC(=O)O)c4ccccc4C3(C)C)/CC2)C(C)(C)c2ccccc21 [Example 88, 2-((E)-2-((E)-3-(2-((E)-1-(5-carboxypentyl)-3,3-dimethylindolin-2-ylidene)ethenyl)-2-chlorocyclopent-1-en-1-yl)ethenyl)-1-(6-(2,6-dimethylphenoxy)-6-oxohexyl)-3,3-dimethyl-3H-indol-1-ium Acetate] | – | 1.75 | – |
| CC[N+]1=C(/C=C/C2=C(Cl)C(=C/C=C3/N(CCCCCC(=O)O)c4ccccc4C3(C)C)/CCC2)C(C)(C)c2cc(C(=O)O)ccc21.[Cl-] [Example 92] | – | 1.49 | – |
| CC[N+]1=C(/C=C/C2=C(Sc3ccccc3)C(=C/C=C3/N(CCCCCC(=O)Oc4ccccc4)c4ccccc4C3(C)C)/CC2)C(C)(C)c2ccccc21 [Example 101] | 836.5 nm | 1.971 | – |
| CC[N+]1=C(/C=C/C2=C(Oc3ccc(C#N)cc3)C(=C/C=C3/N(CCCCCC(=O)Oc4c(C)cccc4C)c4ccccc4C3(C)C)/CCC2)C(C)(C)c2ccccc21 [Example 114] | – | 2.46 | – |
